Article PMC3529200 (Bioorganic & medicinal chemistry letters, 2010)

Legend:
CYP2C9 = CYP2C9 (Homo sapiens, UniProt P11712); test: CYP inhibition
[1] = pharmacokinetics, species not specified; conditions: in vivo
CYP2J = test: CYP inhibition
[2] = system: AngII-induced hypertension; test: AngII-infused rat model of hypertension; type: in vivo, Sprague-Dawley rats; conditions: 50 mg/kg orally twice daily
rat pharmacokinetics = conditions: up to 2000 mg/kg in rats
CYP2C19 = CYP2C19 (Homo sapiens, UniProt P33261); test: CYP inhibition
Sequence of CYP2C19 (P33261 whole entry): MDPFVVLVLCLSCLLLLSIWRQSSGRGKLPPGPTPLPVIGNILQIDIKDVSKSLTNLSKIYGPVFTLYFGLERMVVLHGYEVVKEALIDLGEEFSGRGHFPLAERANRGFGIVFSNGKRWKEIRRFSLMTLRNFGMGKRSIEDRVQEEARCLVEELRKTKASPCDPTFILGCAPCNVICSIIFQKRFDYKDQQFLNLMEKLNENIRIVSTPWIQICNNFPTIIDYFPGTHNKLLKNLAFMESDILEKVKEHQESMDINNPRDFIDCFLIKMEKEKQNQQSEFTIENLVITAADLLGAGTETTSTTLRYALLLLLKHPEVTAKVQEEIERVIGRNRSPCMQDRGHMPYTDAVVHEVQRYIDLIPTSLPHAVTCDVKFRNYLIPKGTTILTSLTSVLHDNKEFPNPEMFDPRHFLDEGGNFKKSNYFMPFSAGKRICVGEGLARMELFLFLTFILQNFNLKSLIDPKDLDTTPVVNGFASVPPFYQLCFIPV

CYP1A2 = target: T1, CYP1A2 (Homo sapiens, UniProt P05177); test: CYP inhibition
T1 sequence (P05177 1-516): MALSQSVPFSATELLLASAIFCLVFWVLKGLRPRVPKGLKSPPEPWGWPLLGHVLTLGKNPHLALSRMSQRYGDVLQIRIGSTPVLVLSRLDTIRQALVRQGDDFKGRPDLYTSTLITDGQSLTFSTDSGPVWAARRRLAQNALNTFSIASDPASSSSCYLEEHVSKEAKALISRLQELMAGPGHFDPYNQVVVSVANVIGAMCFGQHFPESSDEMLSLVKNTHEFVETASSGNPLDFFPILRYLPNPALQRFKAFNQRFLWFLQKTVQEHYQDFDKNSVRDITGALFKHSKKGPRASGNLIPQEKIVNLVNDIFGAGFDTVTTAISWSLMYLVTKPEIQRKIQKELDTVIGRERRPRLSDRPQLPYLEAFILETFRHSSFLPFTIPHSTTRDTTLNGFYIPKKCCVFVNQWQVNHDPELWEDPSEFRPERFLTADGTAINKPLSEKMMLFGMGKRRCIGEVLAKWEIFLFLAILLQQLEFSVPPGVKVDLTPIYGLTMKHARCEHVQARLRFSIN

[3] = cynomolgus monkey pharmacokinetics; conditions: up to 180 mg/kg in cynomolgus monkeys
Caco-2 monolayer = Caco-2 monolayer permeability
dog pharmacokinetics = conditions: up to 500 mg/kg in dogs
[4] = system: ca.150 other enzyme and receptor targets; test: selectivity panel of ca.150 other enzyme and receptor targets; conditions: tested at 10 μM
CYP2B6 = target: T2, CYP2B6 (Homo sapiens, UniProt P20813); test: CYP inhibition
T2 sequence (P20813 1-491): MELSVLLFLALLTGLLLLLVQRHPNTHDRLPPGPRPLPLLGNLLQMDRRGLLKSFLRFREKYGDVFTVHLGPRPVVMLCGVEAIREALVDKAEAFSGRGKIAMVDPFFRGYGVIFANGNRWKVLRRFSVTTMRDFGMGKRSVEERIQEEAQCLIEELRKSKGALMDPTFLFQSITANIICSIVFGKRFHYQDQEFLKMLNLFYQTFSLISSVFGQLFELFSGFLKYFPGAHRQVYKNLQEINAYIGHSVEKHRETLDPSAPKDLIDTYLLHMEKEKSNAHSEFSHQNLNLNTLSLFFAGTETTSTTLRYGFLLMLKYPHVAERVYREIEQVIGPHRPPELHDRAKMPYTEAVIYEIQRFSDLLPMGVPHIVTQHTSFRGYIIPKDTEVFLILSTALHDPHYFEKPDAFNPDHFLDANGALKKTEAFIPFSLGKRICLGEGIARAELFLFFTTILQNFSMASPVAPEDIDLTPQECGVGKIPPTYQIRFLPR

[5] = early animal and human dose range finding toxicology studies; cited from earlier work
CYP2C = test: CYP inhibition
[6] = system: impaired glucose tolerance; test: diet induced-obesity; type: in vivo, C57Bl/6 mice; conditions: 100 mg/kg oral twice a day, after 4 weeks, ip glucose 2 g/kg 4 hours after dose
CYP3A4 = CYP3A4 (Homo sapiens, UniProt P08684); test: CYP inhibition
Sequence of CYP3A4 (P08684 whole entry): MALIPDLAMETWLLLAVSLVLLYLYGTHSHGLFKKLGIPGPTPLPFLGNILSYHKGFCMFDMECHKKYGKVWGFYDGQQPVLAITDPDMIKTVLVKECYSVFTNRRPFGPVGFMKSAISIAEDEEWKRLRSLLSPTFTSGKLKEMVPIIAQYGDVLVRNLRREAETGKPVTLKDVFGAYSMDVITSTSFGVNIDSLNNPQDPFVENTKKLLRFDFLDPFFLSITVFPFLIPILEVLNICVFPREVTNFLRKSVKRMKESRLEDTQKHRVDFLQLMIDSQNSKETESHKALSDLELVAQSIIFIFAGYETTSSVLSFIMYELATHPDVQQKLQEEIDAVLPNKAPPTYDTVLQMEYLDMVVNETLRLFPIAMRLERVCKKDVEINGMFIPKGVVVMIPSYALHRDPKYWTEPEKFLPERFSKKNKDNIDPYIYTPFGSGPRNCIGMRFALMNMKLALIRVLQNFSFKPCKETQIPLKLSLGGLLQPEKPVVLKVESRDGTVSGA

Sequence of CYP2C9 (P11712 whole entry): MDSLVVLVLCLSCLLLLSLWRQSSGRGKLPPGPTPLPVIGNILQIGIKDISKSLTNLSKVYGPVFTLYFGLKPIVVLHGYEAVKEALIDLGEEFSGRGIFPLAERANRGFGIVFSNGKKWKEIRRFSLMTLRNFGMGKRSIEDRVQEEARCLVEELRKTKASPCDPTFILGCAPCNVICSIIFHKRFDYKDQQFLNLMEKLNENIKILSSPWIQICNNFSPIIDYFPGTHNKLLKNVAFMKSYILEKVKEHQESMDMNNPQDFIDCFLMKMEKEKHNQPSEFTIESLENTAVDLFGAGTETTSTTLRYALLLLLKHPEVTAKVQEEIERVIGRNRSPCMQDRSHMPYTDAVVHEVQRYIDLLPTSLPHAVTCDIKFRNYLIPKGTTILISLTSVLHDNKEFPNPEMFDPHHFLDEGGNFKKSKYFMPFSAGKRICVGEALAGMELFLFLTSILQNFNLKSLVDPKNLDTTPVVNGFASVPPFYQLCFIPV

inhibition of CYP2C9 (CYP2C9): No significant inhibition
clearance [1]: relatively moderate to high
half life [1]: short
inhibition of CYP2J (CYP2J): No significant inhibition
inhibition of CYP2C19 (CYP2C19): No significant inhibition
inhibition of CYP1A2 (CYP1A2): No significant inhibition
permeability across a Caco-2 monolayer (Caco-2 monolayer): highly permeable
inhibitory activity against panel of ca.150 other enzyme and receptor targets [4]: no inhibitory activity
inhibition of CYP2B6 (CYP2B6): No significant inhibition
fraction unbound (plasma protein binding): 0.39 to 0.42
inhibition of CYP2C (CYP2C): No significant inhibition
inhibition of CYP3A4 (CYP3A4): No significant inhibition
Compound: CC(=O)N1CCC(NC(=O)NC23CC4CC(CC(C4)C2)C3)CC1 [Compound 14a, 1-(1-Acetyl-piperidin-4-yl)-3-adamantan-1-yl-urea]
effect on diastolic pressure [2]: more modest effect
oral exposure (AUC) versus dose (rat pharmacokinetics): increased in approximate proportion to dose
oral exposure (AUC) versus dose [3]: increased in approximate proportion to dose
oral exposure (AUC) versus dose (dog pharmacokinetics): increased in approximate proportion to dose
tolerability [5]: well tolerated
glucose AUC versus vehicle-treated animals [6]: lower
maximal glucose excursion versus vehicle-treated animals [6]: lower
